Results: paper PMC8456368 (Bioorganic & medicinal chemistry, 2021)

What was measured:
[1] = target: T1, GST-MKK3 and full-length VF-MYC interaction (Homo sapiens, UniProt P46734); assay: dose-response cell lysate-based TR-FRET assay; format: binding; settings: for inhibition of MKK3-MYC PPI in dose-response TR-FRET: up to 100 µM compound
T1 sequence (P46734 1-347): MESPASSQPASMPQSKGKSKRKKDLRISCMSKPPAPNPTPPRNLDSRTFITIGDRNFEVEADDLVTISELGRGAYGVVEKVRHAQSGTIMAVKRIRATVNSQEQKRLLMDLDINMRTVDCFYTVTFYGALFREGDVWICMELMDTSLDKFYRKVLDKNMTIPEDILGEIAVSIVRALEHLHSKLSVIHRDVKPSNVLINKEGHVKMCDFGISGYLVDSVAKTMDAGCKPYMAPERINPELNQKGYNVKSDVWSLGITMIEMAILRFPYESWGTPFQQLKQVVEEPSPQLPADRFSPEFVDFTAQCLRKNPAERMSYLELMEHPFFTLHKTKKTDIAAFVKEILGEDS

[2] = test system: MYC, CDK4 and PD-L1 level in HCT116 cells; assay: Western blot of MYC and MYC-target genes; format: cell-based; settings: RG108 up to 10 µM
[3] = test system: MYC transcriptional activity in HCT116 cells; assay: luciferase-based MYC reporter assay; format: cell-based; settings: HCT116 cells expressing VF-MKK3; 0.5 to 5 µM, 12 hours
MKK3-MYC PPI = target: T2, MKK3-MYC PPI (Homo sapiens, UniProt P46734); assay: GST pull-down PPI inhibition assay, compound-treated HEK293T lysates; format: binding; settings: lysates treated with 50 µM
T2 sequence (P46734 1-347): T1 sequence (P46734 1-347)

MKK3-p38 PPI = target: T3, MKK3-p38 PPI (Homo sapiens, UniProt P46734); assay: as above; format: binding; settings: up to 50 µM
T3 sequence (P46734 1-347): T1 sequence (P46734 1-347)

MYC-MAX PPI = MYC-MAX PPI (Homo sapiens, UniProt P01106); assay: as above; format: binding; settings: up to 50 µM
MYC-MAX PPI, sequence (P01106 16-454): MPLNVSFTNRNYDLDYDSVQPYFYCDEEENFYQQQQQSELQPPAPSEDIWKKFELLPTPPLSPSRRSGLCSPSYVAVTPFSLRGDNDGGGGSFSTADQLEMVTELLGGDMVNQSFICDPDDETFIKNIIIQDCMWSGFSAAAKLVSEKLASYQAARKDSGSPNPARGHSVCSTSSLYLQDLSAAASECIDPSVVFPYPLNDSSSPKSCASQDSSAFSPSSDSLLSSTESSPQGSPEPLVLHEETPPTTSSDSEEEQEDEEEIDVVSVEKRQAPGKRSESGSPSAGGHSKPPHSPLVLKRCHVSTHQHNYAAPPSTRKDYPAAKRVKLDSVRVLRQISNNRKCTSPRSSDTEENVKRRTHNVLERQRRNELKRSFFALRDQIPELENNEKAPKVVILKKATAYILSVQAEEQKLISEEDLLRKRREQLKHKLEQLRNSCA

[4] = target: T4, GST-MKK3 association with endogenous MYC in HCT116 cells (Homo sapiens, UniProt P46734); assay: GST pull-down from compound-treated cells; format: cell-based; settings: HCT116 cells treated with increased concentration
T4 sequence (P46734 1-347): T1 sequence (P46734 1-347)

[5] = test system: phosphorylation of MKK3 substrate p38 in HEK293T cells; assay: p38 phosphorylation in compound-treated cells; format: cell-based; settings: HEK293T cells incubated with compound
[6] = test system: MYC level in MDA-MB-468 cells; assay: Western blot of MYC level; format: cell-based; settings: increasing concentration
[7] = test system: MYC transcriptional activity in MDA-MB-468 cells; assay: luciferase-based MYC reporter assay; format: cell-based; settings: MDA-MB-468 cells expressing VF-MKK3; 0.5 to 5 µM, 12 hours
Renilla luciferase = assay: luciferase interference control; format: cell-based; settings: cells treated with 10 µM, vs DMSO control

| Structure (SMILES) | inhibition of MKK3-MYC PPI in dose-response TR-FRET [1] | level of MYC and MYC-target genes (CDK4, PD-L1) [2] | MKK3-induced MYC transcriptional activity, reporter assay [3] | IC50 [1] | inhibition of MKK3-MYC PPI in GST pull-down (MKK3-MYC PPI) | suppression of MKK3-p38 PPI in GST pull-down (MKK3-p38 PPI) | suppression of MYC-MAX PPI in GST pull-down (MYC-MAX PPI) | association of GST-MKK3 with endogenous MYC [4] | phosphorylation of MKK3 substrate p38 [5] | MYC level [6] | MKK3-induced MYC transcriptional activity, reporter assay [7] | Renilla luciferase activity (Renilla luciferase) |
| --- | --- | --- | --- | --- | --- | --- | --- | --- | --- | --- | --- | --- |
| O=C(O)[C@H](Cc1c[nH]c2ccccc12)N1C(=O)c2ccccc2C1=O [RG108] | does not interfere | did not suppress | not suppressed |  |  |  |  |  |  |  |  |  |
| Cc1cc2c(C(C)C)c(O)c(O)c(C=O)c2c(O)c1-c1c(C)cc2c(C(C)C)c(O)c(O)c(C=O)c2c1O [AT101, (−)-1,1’,6,6’,7,7’-Hexahydroxy-3,3’-dimethyl-5,5’-bis(1-methylethyl)-[2,2’-binaphthalene]-8,8’dicarboxaldehyde] | did not demonstrate detectable inhibition |  |  |  |  |  |  |  |  |  |  |  |
| Cc1cc(Nc2ccc(NC(=O)c3ccc(Nc4ccnc5ccccc45)cc3)cc2)nc(N)n1 [SGI-1027, N-[4-[(2-Amino-6-methylpyrimidin-4-yl)amino]phenyl]-4-(quinolin-4-ylamino)benzamide] |  | substantial decrease | diminished | 8 µM | confirmed the inhibition | did not observe a significant suppression | did not observe a significant suppression | decreased association | did not decrease | decreased proportionally | diminished | did not observe a decrease |
